In the NIST ThermoML archive (doi:10.1016/j.jct.2017.03.006):

Experiment: xn = mol fraction of the nth substance listed
Conditions: 273.15 K, Liquid, Vibrating tube method

Cc1ccc(C)c(C)c1 [1,2,4-trimethylbenzene] + CCC(C)O
mass density [kg/m3]
Conditions | x2 = 0 | x2 = 0.1 | x2 = 0.1989 | x2 = 0.3011 | x2 = 0.4002 | x2 = 0.5001 | x2 = 0.5997 | x2 = 0.6999 | x2 = 0.7999 | x2 = 0.9
100 kPa | 891.7 | 885.9 | 880.3 | 874.4 | 868.5 | 862.2 | 855.4 | 847.7 | 840.4 | 831.5
1000 kPa | 892.3 | 886.3 | 880.7 | 874.7 | 868.8 | 862.5 | 855.9 | 848.6 | 840.9 | 832.2
2000 kPa | 892.9 | 886.9 | 881.3 | 875.4 | 869.5 | 863.2 | 856.6 | 849.3 | 841.5 | 832.9
5000 kPa | 894.6 | 888.8 | 883.2 | 877.3 | 871.4 | 865.2 | 858.5 | 851.3 | 843.5 | 835
10000 kPa | 897.4 | 891.8 | 886.2 | 880.4 | 874.5 | 868.3 | 861.7 | 854.5 | 846.8 | 838.2
15000 kPa | 900.2 | 894.6 | 889.1 | 883.3 | 877.4 | 871.3 | 864.7 | 857.6 | 849.9 | 841.4
20000 kPa | 902.8 | 897.4 | 891.9 | 886.1 | 880.4 | 874.2 | 867.6 | 860.5 | 852.8 | 844.4
30000 kPa | 908 | 902.7 | 897.3 | 891.6 | 885.8 | 879.7 | 873.3 | 866.2 | 858.6 | 850.1
40000 kPa | 912.9 | 907.8 | 902.4 | 896.7 | 891.1 | 885 | 878.5 | 871.5 | 863.9 | 855.6
50000 kPa | 917.5 | 912.6 | 907.2 | 901.6 | 896 | 890 | 883.6 | 876.6 | 869 | 860.7
60000 kPa | 921.9 | – | – | – | – | – | – | – | – | –
